# In patent US20230391760A1, “HETEROCYCLIC GLP-1 AGONISTS” (Gasherbrum Bio, Inc., priority 2020, published 2023):
# Target: GLP-1 Receptor (Homo sapiens, UniProt P43220)
# Experiment: GLP-1R agonist cAMP stimulation assay (HEK293/GLP1R/CRE-LUC cells, cAMP dynamic 2 Kit)
# Assay type: cell-based
# Details: HEK293/CRE-Luc cell line stably expressing the GLP-1 Receptor, 30 min at 37° C.
# Method in brief: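 cAMP measured by HTRF competition (d2-labelled cAMP with cryptate antibody, 1 h, room temperature, protected from light). Before that, GLP1R/CRE-Luc HEK293 cells (1000/well) were exposed for 30 min at 37 °C to half-log compound dilutions in DPBS containing IBMX 0.5 mM and BSA 0.1%.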
# Chain of GLP-1 Receptor (P43220 24-463, species assumed): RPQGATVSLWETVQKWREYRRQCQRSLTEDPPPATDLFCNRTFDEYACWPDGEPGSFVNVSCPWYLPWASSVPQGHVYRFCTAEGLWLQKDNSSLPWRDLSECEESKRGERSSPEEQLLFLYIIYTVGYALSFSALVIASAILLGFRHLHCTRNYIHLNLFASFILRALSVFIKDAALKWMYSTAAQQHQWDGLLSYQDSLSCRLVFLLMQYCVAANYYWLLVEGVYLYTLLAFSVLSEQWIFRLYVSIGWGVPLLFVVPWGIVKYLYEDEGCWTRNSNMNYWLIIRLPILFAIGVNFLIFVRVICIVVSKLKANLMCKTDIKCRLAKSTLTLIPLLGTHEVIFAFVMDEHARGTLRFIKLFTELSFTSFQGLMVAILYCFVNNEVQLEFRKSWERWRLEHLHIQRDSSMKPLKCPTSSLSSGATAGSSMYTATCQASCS
row,Structure (SMILES),EC50 [pM]
1,"O=C(Nc1ccc2c(c1)nc(CN1CCC(c3cccc(OCc4ccc(Cl)cc4F)n3)CC1)n2C[C@@H]1CCO1)c1cnc2ccccn12 [Compound 181a, N-{2-[(4-{6-[(4-chloro-2-fluorophenyl)methoxy]pyridin-2-yl}piperidin-1-yl)methyl]-1-{[(2S)-oxetan-2-yl]methyl}-1H-1,3-benzodiazol-5-yl}imidazo[1,2-a]pyridine-3-carboxamide]",310
2,"O=C(Nc1ccc2c(c1)nc(CN1CCC(c3cccc(OCc4ccc(Cl)cc4F)n3)CC1)n2C[C@@H]1CCO1)N1CCC(F)(F)C1 [Compound 205a, N-{2-[(4-{6-[(4-chloro-2-fluorophenyl)methoxy]pyridin-2-yl}piperidin-1-yl)methyl]-1-{[(2S)-oxetan-2-yl]methyl}-1H-1,3-benzodiazol-5-yl}-3,3-difluoropyrrolidine-1-carboxamide]",2800
3,"C[C@H]1CN(c2cccc(OCc3ccc(Cl)cc3F)n2)CCN1Cc1nc2cc(-c3nnc(C(F)(F)F)[nH]3)nnc2n1C[C@@H]1CCO1 [Compound 519a, (2S)-4-{6-[(4-chloro-2-fluorophenyl)methoxy]pyridin-2-yl}-2-methyl-1-[(7-{[(2S)-oxetan-2-yl]methyl}-3-[5-(trifluoromethyl)-4H-1,2,4-triazol-3-yl]-7H-imidazo[4,5-c]pyridazin-6-yl)methyl]piperazine]",40
4,"COCCC(=O)Nc1ccc2c(c1)nc(CN1CCC(c3cccc(OCc4ccc(Cl)cc4F)n3)CC1)n2C[C@@H]1CCO1 [Compound 107a, (S)—N-(2-((4-(6-((4-chloro-2-fluorobenzyl)oxy)pyridin-2-yl)piperidin-1-yl)methyl)-1-(oxetan-2-ylmethyl)-1H-benzo[d]imidazol-5-yl)-3-methoxypropanamide]",337

# Further lines, results first:
row,EC50 [pM],Structure (SMILES)
1,1900,"Cc1cc(=O)[nH]c(-c2cc3nc(CN4CCC(c5cccc(OCc6ccc(Cl)cc6F)n5)CC4)n(C[C@@H]4CCO4)c3cn2)n1 [Compound 453a, 2-{2-[(4-{6-[(4-chloro-2-fluorophenyl)methoxy]pyridin-2-yl}piperidin-1-yl)methyl]-3-{[(2S)-oxetan-2-yl]methyl}-3H-imidazo[4,5-c]pyridin-6-yl}-6-methyl-3,4-dihydropyrimidin-4-one]"
2,40,"CC1(c2ccc(Cl)cc2F)Oc2cccc(C3CCN(Cc4nc5cc(-c6noc(=O)[nH]6)ccc5n4C[C@@H]4CCO4)CC3)c2O1 (single isomer, unassigned) [Compound 239b]"
3,650,"CC1(c2ccc(Cl)cc2F)Oc2cccc(C3CCN(Cc4nc5cc(-c6nnc(S(C)(=O)=O)[nH]6)ccc5n4C[C@@H]4CCO4)CC3)c2O1 (stereo partly drawn) [Compound 253a, 2-({4-[2-(4-chloro-2-fluorophenyl)-2-methyl-2H-1,3-benzodioxol-4-yl]piperidin-1-yl}methyl)-5-(5-methanesulfonyl-4H-1,2,4-triazol-3-yl)-1-{[(2S)-oxetan-2-yl]methyl}-1H-1,3-benzodiazole]"
